According to US6552082B2, “Solution of N-[o-(p-pivaloyloxybenzenesulfonylamino)benzoyl] glycine monosodium salt tetra-hydrate and drug product thereof” (Ono Pharmaceutical Co., Ltd., priority 2000, dated 2003):

Assays:
[1] = solubility of the compound (I) in normal solvents; type: physicochemical
[2] = change of pH in the time course on freeze-dried product comprising sodium carbonate; type: physicochemical
Protocol: (a) when the aqueous solution was prepared,
(b) when the prepared aqueous solution was filled in each vial (5 mL), freeze-dried and then dissolved in water (10 mL),
(c) when the prepared aqueous solution was filled in each vial (5 mL), freeze-dried and the formulation obtained was left at 60 degrees Centigrade for two weeks and dissolved in water (10 mL).

[3] = investigation of pH adjusters: amount added, pH and clearness of suspension; type: physicochemical
Protocol: The present inventors have investigated the amounts of di-sodium hydrogen phosphate, tri-sodium phosphate, potassium hydroxide and sodium hydroxide to add and the changes in pH thereby.
Di-sodium hydrogen phosphate dodecahydrate (80 g) was added to water (200 mL) and dissolved by heating. To the above suspension under stirring with a stirrer was added the aqueous solution of Di-sodium hydrogen phosphate dodecahydrate by 5 mL each and the pH was measured.
To the suspension under stirring with a stirrer was added an aqueous solution of […] (4 g/100 mL) by 5 mL portion each and the pH was measured.
To the suspension under stirring with a stirrer was added 1N aqueous solution of potassium hydroxide (0.5 mL portion each) and the pH of the solution was measured.
To the suspension under stirring with a stirrer was added 1N aqueous solution of sodium hydroxide (1 mL portion each) and the pH was measured.

[4] = stability of the drug products (pH and residual rate of freeze-dried products); type: physicochemical
Protocol: (i) an aqueous solution of tri-sodium phosphate dodecahydrate (36.4 mg/mL; 50 mL),
(ii) an aqueous solution of potassium hydroxide (56 mg/mL 6 mL),
(iii) an aqueous solution of sodium hydroxide (40 mg/mL; 5.6 mL)
(a) when the aqueous solutions were prepared,
(b) when the prepared aqueous solutions were filled in each vial (5 mL), freeze-dried and then dissolved in water (10 mL),
(c) when the prepared aqueous solution was filled in each vial (5 mL), freeze-dried and the drug product was left at 60 degrees Centigrade for two weeks (in case of sodium hydroxide for one month) and dissolved in water (10 mL).

[5] = admixing with amino acid infusion as replacement of pH adjusters; type: physicochemical; details: compound (I) 5 mg/mL admixed with KYORYOKU MORIAMINE infusion
[6] = investigation of a solution of high concentration; type: physicochemical; details: 400 mg compound (I), 100 mg mannitol, 24 mg sodium hydroxide, water to 5 mL
Protocol: To the mixture under stirring, was added IN aqueous solution of sodium hydroxide (0.6 mL: corresponds to 24 mg). Thereto was added water in order to fill up to 5 mL of total amount. […] Therefore it was impossible to freeze-dry the suspension.

[7] = amount of sodium hydroxide and stability in water/ethanol solution; type: physicochemical; details: pH over 8.5
Protocol: To the mixture added water in order to fill up to 5 mL of total solution.

[8] = target: T1, elastase (Homo sapiens, UniProt P08246); details: background statement; cited from earlier work
T1 sequence (P08246 30-267): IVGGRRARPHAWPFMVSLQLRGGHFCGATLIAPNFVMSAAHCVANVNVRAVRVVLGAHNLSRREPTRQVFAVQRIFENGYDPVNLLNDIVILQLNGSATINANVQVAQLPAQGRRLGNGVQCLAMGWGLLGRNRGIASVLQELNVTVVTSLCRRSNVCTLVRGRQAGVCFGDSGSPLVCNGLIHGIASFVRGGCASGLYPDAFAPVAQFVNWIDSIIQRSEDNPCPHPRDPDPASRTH

[9] = formulation with sodium carbonate

solubility ([1]; ethanol, organic solvent or mixture, read-out: solubility in ethanol): < 6 mg/mL
solubility ([1]; water, read-out: solubility in water): < 0.4 mg/mL
pH (a) when the aqueous solution was prepared ([2]; formulation of JP kokai hei 5-194366 with sodium chloride and sodium carbonate): 7.80
pH (b) freeze-dried and then dissolved in water (10 mL) [2, 9]: 8.11
pH (c) freeze-dried, left at 60 degrees Centigrade for two weeks, dissolved in water (10 mL) [2, 9]: 8.44
residual rate of the compound (I) ([2]; freeze-dried product with sodium carbonate, 60 degrees Centigrade, two weeks): 91.4%
pH when the suspension turned into a clear aqueous solution ([3]; 5 mL of 1N potassium hydroxide added): 7.20
pH when the suspension turned into a clear aqueous solution ([3]; 7 mL of 1N sodium hydroxide added): 7.44
pH when the suspension turned into a clear aqueous solution ([3]; 45 mL of tri-sodium phosphate dodecahydrate solution added): 7.19
solubility ([4]; aqueous buffer, solvent exclusively water, with pH adjuster, read-out: solubility of the above solution (water with pH adjuster)): ~20 mg/mL
residual rate of the compound (I) ([4]; freeze-dried product with sodium hydroxide, 60 degrees Centigrade, 1 month): 98.3%
pH after preparation [5]: 6.36
pH after twenty-four hours [5]: 6.13
residual rate of the compound (I) after twenty-four hours [5]: 54.1%
condition of the mixture (clear solution or not) ([6]; ethanol 1.0 mL): clear solution
residual rate of the compound (I) [7]: over 98%
SMILES: CC(C)(C)C(=O)Oc1ccc(S(=O)(=O)Nc2ccccc2C(=O)NCC(=O)[O-])cc1.[Na+] [compound (I), N-[o-(p-pivaloyloxybenzenesulfonylamino)benzoyl]glycine monosodium salt tetra-hydrate]
condition of the suspension (clear solution or not) ([3]; di-sodium hydrogen phosphate dodecahydrate solution 200 mL (80 g), pH 8.18): did not turn into a clear aqueous solution
condition of the mixture (clear solution or not) ([6]; no ethanol): did not turn into a clear solution but a white suspension
inhibitory activity against elastase [8]: has an inhibitory activity against elastase
